Paper PMC10999543, “Identification of kinase modulators as host-directed therapeutics against intracellular methicillin-resistant Staphylococcus aureus” (Frontiers in Cellular and Infection Microbiology, 2024)
Where two headings read alike, the source gives them in different places.

Experiments:
intracellular MRSA = assay type: cell-based, Staphylococcus aureus; conditions: for %GFP+ rep 1 / z-scoreMRSA+ rep 1: replicate 1; for %GFP+ rep 2 / z-scoreMRSA+ rep 2: replicate 2; for %GFP+ rep 3 / z-scoreMRSA+ rep 3: replicate 3; for z-scoreMRSA+ mean: mean of 3 replicates
Protocol: (§1) The cells were resuspended in cell culture medium without antibiotics, seeded with 10,000 cells/well into Costar flat-bottom 96-well plates (Corning, Amsterdam, the Netherlands), and were incubated overnight at 37°C/5% CO2. The next day, the bacteria were centrifuged at ≥1800 g for 15 min and resuspended in cold PBS + 5 mM ethylenediaminetetraacetic acid (EDTA). The number of CFUs present in the bacterial suspension was estimated from the optical density at 600 nm (OD600) by assuming 8x10^8 CFUs to be present in a bacterial suspension with OD600 = 1, based on prior titrations. The bacterial suspension was diluted in cell culture medium without antibiotics and added to the cells. Accuracy of the multiplicity of infection (MOI) was validated by plating serial dilutions of the MRSA inoculums on Difco TS agar plates (BD Biosciences). The calculated mean MOI throughout all experiments was 6.8 ± 4.6 (mean ± SD). Infected cells were centrifuged for 3 min at 150 g and incubated for 1 hour at 37°C/5% CO2. Next, the cells were incubated with fresh cell culture medium supplemented with 30 µg/ml gentamicin sulphate (Lonza BioWhittaker, Basel, Switzerland) for 15 min at 37°C/5% CO2 to kill residual extracellular bacteria. Infected cells were incubated overnight at 37°C/5% CO2 in cell culture medium in the presence of kinase inhibitors and 5 µg/ml gentamicin sulphate-containing medium to prevent the growth of extracellular bacteria. The solvent of the compounds, DMSO, was used at equal % v/v as a negative control. For the screen, each compound was tested in triplicate, on separate cell culture plates, resulting in triplicate values for each kinase inhibitor.
(§2) HeLa cells were harvested by trypsinization and fixed with 1% paraformaldehyde. Samples were measured on a FACSLyric with HTS extension (BD Biosciences). Flow cytometry data were analysed using FlowJo version 10 (TreeStar, Ashland, OR, USA). HeLa cells positive for GFP were gated to calculate the percentage of MRSA-infected cells. The cell count was used as surrogate readout of cell viability.
To identify potential “hit” compounds, the flow cytometry data were used to calculate standard z-scores using z = (x-μ)/σ – zneg, where x is total event count or the percent of GFP-positive cells from a single well, μ is the mean from wells of the plate, σ is the standard deviation of the plate and zneg is the mean z-score of the negative control of the plate (i.e., DMSO) ([Korbee et al., 2018]). To minimize the possibility that the presence of extreme values on a plate affected the z-scores, raw values that deviated two-fold from the negative controls were excluded when calculating plate means and standard deviations as used in the aforementioned formula. Compounds were considered a “hit” when z-scoreMRSA+ ≤ -2 and z-scoreHeLa ≥ -3 for cell count. In cases where compounds were screened twice, the average values were used to select hit compounds.

HeLa cells = experiment: Compound screen by flow cytometry: HeLa cell count as surrogate readout of cell viability (z-scoreHeLa); assay type: cell-based, human; conditions: for cell count rep 1 / z-scoreHeLa rep 1: replicate 1; for cell count rep 2 / z-scoreHeLa rep 2: replicate 2; for cell count rep 3 / z-scoreHeLa rep 3: replicate 3; for z-scoreHeLa mean: mean of 3 replicates
Protocol: as §1, §2
To minimize the possibility that the presence of extreme values on a plate affected the z-scores, raw values that deviated two-fold from the negative controls were excluded when calculating plate means and standard deviations as used in the aforementioned formula. Compounds were considered a “hit” when z-scoreMRSA+ ≤ -2 and z-scoreHeLa ≥ -3 for cell count. In cases where compounds were screened twice, the average values were used to select hit compounds.

[1] = PKIS compound screen raw data, MRSA-infected HeLa cells
[2] = Yes/No: effect without cell death
[3] = compound screen, MRSA-infected HeLa cells
[4] = PKIS compound screen raw data, HeLa cell count
[5] = compound screen, HeLa cell count
[6] = PKIS compounds raw data, MRSA-infected HeLa cells
[7] = PKIS compounds raw data, HeLa cell count
[8] = PKIS compound screen, MRSA-infected HeLa cells
[9] = PKIS compound screen, Yes/No call
[10] = PKIS compound screen, Yes/No call (effect without cell death)
[11] = PKIS compound screen, Yes/No call on z-scoreMRSA+
[12] = PKIS compound screen, HeLa cell count
[13] = PKIS compound screen, Yes/No call on z-scoreHeLa

SMILES: Cc1ccc(C)c(NC(=O)NCCNc2ccnc(Nc3ccc(F)cc3)n2)c1 [GSK1379878A]
- %GFP+ rep 1 (intracellular MRSA; [1]): 23.2%
- %GFP+ rep 2 (intracellular MRSA; [1]): 23.5%
- %GFP+ rep 3 (intracellular MRSA; [1]): 22.5%
- effect (intracellular MRSA; Yes/No call from z-scoreMRSA+): No
- hit (intracellular MRSA; [2]): No
- z-scoreMRSA+ mean (intracellular MRSA; [3]): 0.88
- z-scoreMRSA+ rep 1 (intracellular MRSA; [3]): 1.18
- z-scoreMRSA+ rep 2 (intracellular MRSA; [3]): 1.12
- z-scoreMRSA+ rep 3 (intracellular MRSA; [3]): 0.35
- cell count rep 1 (HeLa cells; [4]): 23015
- cell count rep 2 (HeLa cells; [4]): 22114
- cell count rep 3 (HeLa cells; [4]): 18414
- cell death (HeLa cells; Yes/No call from z-scoreHeLa): No
- z-scoreHeLa mean (HeLa cells; [5]): -0.62
- z-scoreHeLa rep 1 (HeLa cells; [5]): -1.22
- z-scoreHeLa rep 2 (HeLa cells; [5]): -0.54
- z-scoreHeLa rep 3 (HeLa cells; [5]): -0.10

SMILES: CS(=O)(=O)CCNCc1nc(-c2ccc3ncnc(Nc4ccc(OCc5cccc(F)c5)c(Cl)c4)c3c2)cs1 [GW583340C]
- %GFP+ rep 1 (intracellular MRSA; [6]): 17.5%
- %GFP+ rep 2 (intracellular MRSA; [6]): 15.0%
- %GFP+ rep 3 (intracellular MRSA; [6]): 17.3%
- effect (intracellular MRSA; Yes/No call from z-scoreMRSA+): No
- hit (intracellular MRSA; [2]): No
- z-scoreMRSA+ mean (intracellular MRSA; [3]): -1.71
- z-scoreMRSA+ rep 1 (intracellular MRSA; [3]): -1.81
- z-scoreMRSA+ rep 2 (intracellular MRSA; [3]): -1.85
- z-scoreMRSA+ rep 3 (intracellular MRSA; [3]): -1.47
- cell count rep 1 (HeLa cells; [7]): 5969
- cell count rep 2 (HeLa cells; [7]): 5507
- cell count rep 3 (HeLa cells; [7]): 7162
- cell death (HeLa cells; Yes/No call from z-scoreHeLa): No
- z-scoreHeLa mean (HeLa cells; [5]): 1.10
- z-scoreHeLa rep 1 (HeLa cells; [5]): 1.17
- z-scoreHeLa rep 2 (HeLa cells; [5]): 0.93
- z-scoreHeLa rep 3 (HeLa cells; [5]): 1.22

SMILES: c1ccc(-c2cc3ccncc3cc2OC2CCNCC2)cc1 [GSK1122999D]
- %GFP+ rep 1 (intracellular MRSA; [1]): 16.9%
- %GFP+ rep 2 (intracellular MRSA; [1]): 18.4%
- %GFP+ rep 3 (intracellular MRSA; [1]): 20.9%
- z-scoreMRSA+ mean (intracellular MRSA; [8]): -0.29
- z-scoreMRSA+ rep 1 (intracellular MRSA; [8]): -0.50
- z-scoreMRSA+ rep 2 (intracellular MRSA; [8]): -0.28
- z-scoreMRSA+ rep 3 (intracellular MRSA; [8]): -0.09
- effect (intracellular MRSA; [9]): No
- hit (intracellular MRSA; [10]): No
- effect (intracellular MRSA; [11]): No
- z-scoreMRSA+ mean (intracellular MRSA; PKIS compound screen): 0.55
- z-scoreMRSA+ rep 1 (intracellular MRSA; PKIS compound screen): 0.42
- z-scoreMRSA+ rep 2 (intracellular MRSA; PKIS compound screen): 0.40
- z-scoreMRSA+ rep 3 (intracellular MRSA; PKIS compound screen): 0.84
- %GFP+ rep 1 (intracellular MRSA; [6]): 29.2%
- %GFP+ rep 2 (intracellular MRSA; [6]): 28.1%
- %GFP+ rep 3 (intracellular MRSA; [6]): 31.8%
- cell count rep 1 (HeLa cells; [4]): 28278
- cell count rep 2 (HeLa cells; [4]): 18056
- cell count rep 3 (HeLa cells; [4]): 22119
- z-scoreHeLa mean (HeLa cells; [12]): -0.31
- z-scoreHeLa rep 1 (HeLa cells; [12]): -0.33
- z-scoreHeLa rep 2 (HeLa cells; [12]): -1.24
- z-scoreHeLa rep 3 (HeLa cells; [12]): 0.62
- cell death (HeLa cells; [9]): No
- cell death (HeLa cells; [13]): No
- z-scoreHeLa mean (HeLa cells; PKIS compound screen): 0.77
- z-scoreHeLa rep 1 (HeLa cells; PKIS compound screen): 1.62
- z-scoreHeLa rep 2 (HeLa cells; PKIS compound screen): 0.23
- z-scoreHeLa rep 3 (HeLa cells; PKIS compound screen): 0.45
- cell count rep 1 (HeLa cells; [7]): 8742
- cell count rep 2 (HeLa cells; [7]): 6353
- cell count rep 3 (HeLa cells; [7]): 6306

SMILES: O=C1Nc2ccc(C(=O)c3ccco3)cc2C1=Cc1cc(Cl)c(O)c(Cl)c1 [GW406108X]
- %GFP+ rep 1 (intracellular MRSA; [1]): 19.1%
- %GFP+ rep 2 (intracellular MRSA; [1]): 21.6%
- %GFP+ rep 3 (intracellular MRSA; [1]): 22.3%
- z-scoreMRSA+ mean (intracellular MRSA; [8]): 0.69
- z-scoreMRSA+ rep 1 (intracellular MRSA; [8]): 0.39
- z-scoreMRSA+ rep 2 (intracellular MRSA; [8]): 0.93
- z-scoreMRSA+ rep 3 (intracellular MRSA; [8]): 0.76
- hit (intracellular MRSA; [10]): No
- effect (intracellular MRSA; [11]): No
- cell count rep 1 (HeLa cells; [4]): 28408
- cell count rep 2 (HeLa cells; [4]): 39603
- cell count rep 3 (HeLa cells; [4]): 51964
- z-scoreHeLa mean (HeLa cells; [12]): 1.33
- z-scoreHeLa rep 1 (HeLa cells; [12]): 1.26
- z-scoreHeLa rep 2 (HeLa cells; [12]): 0.90
- z-scoreHeLa rep 3 (HeLa cells; [12]): 1.82
- cell death (HeLa cells; [13]): No
